Our source for the mutagenic call and call values is PubChem BioAssay AID1259408 (Genetic Toxicology Data Bank (GENE-TOX), 2018).

The subject of the data set is GENE-TOX genotoxicity assays, various organisms and cells. Briefly: GENE-TOX mutagenicity studies. The note with it: for call: Assay Type: In vivo carcinogenicity studies.
[1] abbreviates: Species/Cell Type: Human, Assay Type: Sister-chromatid exchange (SCE) in vitro, Assay Code: SC1+D, Dose Response: With dose response, Evaluation Type: Evaluation B (Post-1980).
Setting [2] is: Species/Cell Type: Nonhuman, Assay Code: CCG+, Evaluation Type: Evaluation A (Pre-1980).
[3] abbreviates: Species/Cell Type: Drosophila melanogaster, Assay Type: Sex-linked recessive lethal gene mutation, Assay Code: SRLT, Evaluation Type: Evaluation A (Pre-1980).
Where [4] appears, read: Species/Cell Type: Escherichia coli polA (W3119 vs P3478), Assay Type: Rec-assay, DNA effects (bacterial DNA repair), Assay Code: RE1+, Evaluation Type: Evaluation A (Pre-1980).
The mark [5] stands for this setting: Species/Cell Type: Salmonella typhimurium (one or more of the five standard strains: TA98, TA100, TA1535, TA1537, and TA1538), Assay Type: Histidine reverse gene mutation, Ames assay, Assay Code: SALT, Evaluation Type: Evaluation A (Pre-1980).
Setting [6] is: Species/Cell Type: Saccharomyces cerevisiae, Assay Type: Reverse gene mutation, Assay Code: YERT, Evaluation Type: Evaluation A (Pre-1980).
The mark [7] stands for this setting: Species/Cell Type: Mammalian polychromatic erythrocytes, Assay Type: Micronucleus test, chromosome aberrations, Assay Code: MNTT, Evaluation Type: Evaluation B (Post-1980).
The mark [8] stands for this setting: Species/Cell Type: Neurospora crassa, Assay Type: Aneuploidy, chromosome aberrations, Assay Code: NEN-, Evaluation Type: Evaluation A (Pre-1980).

Calls of active or inactive are those of the source. The rule behind the calls is not given here.

`ClC(Cl)Cl`: the mutagenic call runs as follows: (Species/Cell Type: Chinese hamster lung (V79) cells, Assay Type: Forward gene mutation at the HPRT or ouabain locus, Assay Code: V79-, Evaluation Type: Evaluation A (Pre-1980)) “inactive; negative”; (Species/Cell Type: Human lymphocytes, Assay Type: Sister-chromatid exchange (SCE) in vitro, Assay Code: SCL+D, Dose Response: With dose response, Evaluation Type: Evaluation B (Post-1980)) “active; positive”; under setting [1], “active; positive”; (Species/Cell Type: Mammalian polychromatic erythrocytes, Assay Type: Micronucleus test, chromosome aberrations, Assay Code: MNTT, Evaluation Type: Evaluation A (Pre-1980)) “no conclusion”; (Species/Cell Type: Mouse, Sex: Male, Assay Type: Sperm morphology, Assay Code: SPIT, Evaluation Type: Evaluation A (Pre-1980)) “no conclusion”; (Species/Cell Type: Nonhuman, Assay Type: Sister-chromatid exchange (SCE) in vitro, Assay Code: SC2T, Evaluation Type: Evaluation B (Post-1980)) “no conclusion”. Also, the mutagenic call was “active; positive” (Species/Cell Type: Nonhuman, Assay Type: Sister-chromatid exchange (SCE) in vivo, Assay Code: SC3+D, Dose Response: With dose response, Evaluation Type: Evaluation B (Post-1980)); “active; positive” (Species/Cell Type: Saccharomyces cerevisiae, Assay Type: Mitotic recombination or gene conversion, Assay Code: YEC+, Evaluation Type: Evaluation A (Pre-1980)); “active; positive” (Species/Cell Type: Saccharomyces cerevisiae, Assay Type: Mitotic recombination or gene conversion, Assay Code: YEH+, Evaluation Type: Evaluation A (Pre-1980)); “active; positive” (Species/Cell Type: Saccharomyces cerevisiae, Assay Type: Reverse gene mutation, Assay Code: YER+, Evaluation Type: Evaluation A (Pre-1980)); “inactive; negative” (Species/Cell Type: Syrian hamster embryo (SA7/SHE) cells, Assay Type: Cell transformation, viral enhanced, Assay Code: CT7-, Evaluation Type: Evaluation A (Pre-1980)). In addition, the call under setting [2] is “active; positive”.
Turning to `CC(Br)Br`, the mutagenic call is “no conclusion” under setting [3]; “active; positive” under setting [4]; “inactive; negative” (Species/Cell Type: Tradescantia species, Assay Type: Gene mutation, Assay Code: TRM-, Evaluation Type: Evaluation A (Pre-1980)).
On to `CC1CCOS1(=O)=O` (centres undefined), for which, for the setting “Species/Cell Type: Schizosaccharomyces pombe, Assay Type: Reverse gene mutation, Assay Code: YEZ+, Evaluation Type: Evaluation A (Pre-1980)”, the mutagenic call was “active; positive”.
As for `CCN(CCO)CCNc1ccc(CO)c2sc3cc(Cl)ccc3c(=O)c12`, the mutagenic call (Species/Cell Type: Mouse lymphoma (L5178Y) cells, Assay Type: Forward gene mutation at the thymidine kinase (TK) locus, chromosome aberrations, Assay Code: L51+, Evaluation Type: Evaluation A (Pre-1980)) is “active; positive”.
Consider `COc1cc2cc3c4cc(OC)c(OC)cc4cc[n+]3c(C)c2cc1OC` (tested in a mixture with another compound), for which the mutagenic call under setting [5] is “no conclusion”.
For `COc1ccc2c3c(cccc13)C(=O)c1ccccc1-2`, where the note is “Species/Cell Type: Salmonella typhimurium (one or more of the five standard strains: TA98, TA100, TA1535, TA1537, and TA1538), Assay Type: Histidine reverse gene mutation, Ames assay, Assay Code: SAL+*, Activation: With metabolic activation, Evaluation Type: Evaluation A (Pre-1980)”, the mutagenic call was “active; positive”.
With `COc1cc(/C=N/NC(=O)COc2ccc(Br)cc2CN2CCOCC2)ccc1O`, the mutagenic call under setting [6] is on record as “no conclusion”.
`O=P([O-])([O-])[O-].O=P([O-])([O-])[O-].[Pb+2].[Pb+2].[Pb+2]`: the call under setting [2] is “active; positive”.
As for `CC(C(=O)O)c1ccc(-c2ccccc2)c(F)c1` (centres undefined), the mutagenic call (Species/Cell Type: Human lymphocytes, Assay Type: Sister-chromatid exchange (SCE) in vivo, Assay Code: SCY+, Evaluation Type: Evaluation B (Post-1980)) is “active; positive”.
As for `Cc1c(N)cccc1N`, the call (Species/Cell Type: Nonhuman, Assay Code: CCG-, Evaluation Type: Evaluation A (Pre-1980)) was “inactive; negative”.
Take `CN(C)CC/C=C1/c2ccccc2Sc2ccc(Cl)cc21`: the mutagenic call (Species/Cell Type: Nonhuman, Assay Type: Sister-chromatid exchange (SCE) in vitro, Assay Code: SC2+D, Dose Response: With dose response, Evaluation Type: Evaluation A (Pre-1980)) is “active; positive”.
For the compound `Cc1cccc(C)c1O`, where the note is “Species/Cell Type: Human lymphocytes, Assay Type: Sister-chromatid exchange (SCE) in vitro, Assay Code: SCLT, Evaluation Type: Evaluation B (Post-1980)”, the mutagenic call is given as “no conclusion”.
As to `CC[n+]1c(-c2ccccc2)c2cc(N=[N+]=[N-])ccc2c2ccc(N)cc21`, under setting [5], the mutagenic call was “no conclusion”.
`Nc1ccc(Cl)cc1`: the mutagenic call is, setting by setting: under setting [4], “active; positive”; (Species/Cell Type: Saccharomyces cerevisiae, Assay Type: Mitotic recombination or gene conversion, Assay Code: YEH-, Evaluation Type: Evaluation A (Pre-1980)) “inactive; negative”; (Species/Cell Type: Syrian hamster embryo (SHE) cells, Assay Type: Cell transformation, clonal assay, Assay Code: CTC+, Evaluation Type: Evaluation A (Pre-1980)) “active; positive”.
In the case of `O=[As]O`, the mutagenic call by setting is: (Species/Cell Type: Bacillus subtilis (H17 vs M45), Assay Type: Rec-assay, spot test, DNA effects (bacterial DNA repair), Assay Code: REW+, Evaluation Type: Evaluation A (Pre-1980)) “active; positive”; (Species/Cell Type: Chinese hamster ovary (CHO) cells, Assay Type: Forward gene mutation at the HPRT locus, Assay Code: CHOT, Evaluation Type: Evaluation B (Post-1980)) “no conclusion”; (Species/Cell Type: Human lymphocytes, Assay Type: Sister-chromatid exchange (SCE) in vitro, Assay Code: SCL+D*, Activation: With metabolic activation, Dose Response: With dose response, Evaluation Type: Evaluation B (Post-1980)) “active; positive”; (Species/Cell Type: Human, Assay Type: Sister-chromatid exchange (SCE) in vitro, Assay Code: SC1+D*, Activation: With metabolic activation, Dose Response: With dose response, Evaluation Type: Evaluation B (Post-1980)) “active; positive”; (Species/Cell Type: Mammalian polychromatic erythrocytes, Assay Type: Micronucleus test, chromosome aberrations, Assay Code: MNT+, Evaluation Type: Evaluation B (Post-1980)) “active; positive”; (Species/Cell Type: Nonhuman, Assay Type: Sister-chromatid exchange (SCE) in vitro, Assay Code: SC2+, Evaluation Type: Evaluation B (Post-1980)) “active; positive”. Also, the mutagenic call (Species/Cell Type: Syrian hamster embryo (SA7/SHE) cells, Assay Type: Cell transformation, viral enhanced, Assay Code: CT7+, Evaluation Type: Evaluation A (Pre-1980)) was “active; positive”.
As to `CS(=O)(=O)c1ccc([C@H](O)[C@H](CO)NC(=O)C(Cl)Cl)cc1`, under setting [5], the mutagenic call is reported as “no conclusion”.
With `Cc1cc(=O)[nH]c(=S)[nH]1`, the call under setting [2] is “active; positive”.
Turning to `O=C(O)C1CCCCN1` (centres undefined), the mutagenic call (Species/Cell Type: Salmonella typhimurium, Assay Type: Forward and reverse gene mutation, host-mediated assay, Assay Code: HMA-, Evaluation Type: Evaluation A (Pre-1980)) was “inactive; negative”.
With `CC(C)NCC(O)c1ccc2ccccc2c1` (centres undefined), the mutagenic call was “no conclusion” (Species/Cell Type: Human diploid fibroblasts, Assay Type: Unscheduled DNA synthesis (UDS) in vitro, DNA effects, Assay Code: UDHT, Evaluation Type: Evaluation A (Pre-1980)); “no conclusion” under setting [7]; “inactive; negative” (Species/Cell Type: Mouse, Sex: Male, Assay Type: Sperm morphology, Assay Code: SPI-, Evaluation Type: Evaluation A (Pre-1980)).
With `O=C(CCCN1CCC(O)(c2ccc(Cl)cc2)CC1)c1ccc(F)cc1`, the mutagenic call (Species/Cell Type: Allium cepa, Assay Type: Chromosome aberrations, Assay Code: ALC+D, Dose Response: With dose response, Evaluation Type: Evaluation A (Pre-1980)) is “active; positive” and the mutagenic call (Species/Cell Type: Human, Assay Type: Sister-chromatid exchange (SCE) in vitro, Assay Code: SC1T, Evaluation Type: Evaluation B (Post-1980)) is listed as “no conclusion”.
On to `CCCOc1ccc(CC(=O)NN)cc1CN(CC)CC`, for which, under setting [6], the mutagenic call is listed as “no conclusion”.
As for `O=NN(CCCCO)CCCCO`, the mutagenic call under setting [5] is recorded as “no conclusion”.
As to `[C-]#[N+]C(=C\c1ccc(O)cc1)/C(=C/c1ccc(O)cc1)[N+]#[C-]`, the mutagenic call (Species/Cell Type: Bacillus subtilis (H17 vs M45), Assay Type: Rec-assay, spot test, DNA effects (bacterial DNA repair), Assay Code: REWT, Evaluation Type: Evaluation A (Pre-1980)) was “no conclusion”.
Consider `CC1CCOS(=O)(=O)O1` (centres undefined), for which the mutagenic call is, setting by setting: (Species/Cell Type: Salmonella typhimurium (one or more of the five standard strains: TA98, TA100, TA1535, TA1537, and TA1538), Assay Type: Histidine reverse gene mutation, Ames assay, Assay Code: SAL+, Evaluation Type: Evaluation A (Pre-1980)) “active; positive”; (Species/Cell Type: Salmonella typhimurium, Assay Type: Forward and reverse gene mutation, host-mediated assay, Assay Code: HMA+, Evaluation Type: Evaluation A (Pre-1980)) “active; positive”.
As for `COC/C=C(C)/C=C/C=C(C)/C=C/C1=C(C)CCCC1(C)C`, the mutagenic call under setting [1] is “active; positive”.
`Cn1cc[nH]c1=S`: the mutagenic call under setting [7] is “no conclusion”.
For the compound `Cc1c2ccccc2c(C(=O)O)c2ccc3ccccc3c12`, under setting [3], the mutagenic call was “no conclusion”.
`Nc1ccc(S(N)(=O)=O)cc1`: the mutagenic call is “inactive; negative” (Species/Cell Type: Aspergillus nidulans, Assay Type: Aneuploidy, chromosome aberrations, Assay Code: ASN-, Evaluation Type: Evaluation A (Pre-1980)); “active; positive” (Species/Cell Type: Aspergillus nidulans, Assay Type: Mitotic recombination, Assay Code: ASG+, Evaluation Type: Evaluation A (Pre-1980)); “inactive; negative” under setting [8]. Where the note is “Species/Cell Type: Nonhuman, Assay Code: CCGT, Evaluation Type: Evaluation A (Pre-1980)”, the call is “no conclusion”.
Consider `O=[N+]([O-])C1c2ccccc2-c2ccccc21`, for which, under “Species/Cell Type: Escherichia coli WP2 UVRA, Assay Type: Tryptophan reverse gene mutation, Assay Code: WPU+, Evaluation Type: Evaluation A (Pre-1980)”, the mutagenic call is “active; positive”.
As to `CCCCN(CC(O)CC(=O)O)N=O` (centres undefined), the mutagenic call under setting [5] was “no conclusion”.
Consider `O=[N+]([O-])c1cnc2ccccc2c1`, for which the mutagenic call under setting [8] is “inactive; negative”.
